These are literature values, as cited in patent publication US20100069410A1 (Emisphere Technologies Inc., priority 2006, published 2010).

The conditions of this data set: orally administered, Physicians' Desk Reference 1994.

In the case of `Nc1nc2c(ncn2COCCO)c(=O)[nH]1` [acyclovir, 9-(2-hydroxyethoxymethyl) guanine], the reported oral bioavailability is 15-30%.
